Measured values as given in US5206255A, “Heterocyclic compound” (Mitsubishi Kasei Corporation, priority 1989, dated 1993).
Where two headings read alike, the source gives them in different places.

What was measured:
lipoxygenase = molecular target: T1, lipoxygenase (Rattus norvegicus, UniProt P12527); experiment: Inhibition activity to lipoxygenase (leukotriene production by rat abdominal cells, bioassay on guinea pig ileum); type: cell-based, Wister rat; conditions: read-out: Inhibition intensity; for inhibition at 1 µM: 10^-6 M (final concentration)
T1 construct: abdominal cells of Wister rat (7 to 12 week-age); endogenous in cells; host or cells: abdominal (peritoneal) cells of Wister [Wistar] rat
T1 sequence (P12527 1-673): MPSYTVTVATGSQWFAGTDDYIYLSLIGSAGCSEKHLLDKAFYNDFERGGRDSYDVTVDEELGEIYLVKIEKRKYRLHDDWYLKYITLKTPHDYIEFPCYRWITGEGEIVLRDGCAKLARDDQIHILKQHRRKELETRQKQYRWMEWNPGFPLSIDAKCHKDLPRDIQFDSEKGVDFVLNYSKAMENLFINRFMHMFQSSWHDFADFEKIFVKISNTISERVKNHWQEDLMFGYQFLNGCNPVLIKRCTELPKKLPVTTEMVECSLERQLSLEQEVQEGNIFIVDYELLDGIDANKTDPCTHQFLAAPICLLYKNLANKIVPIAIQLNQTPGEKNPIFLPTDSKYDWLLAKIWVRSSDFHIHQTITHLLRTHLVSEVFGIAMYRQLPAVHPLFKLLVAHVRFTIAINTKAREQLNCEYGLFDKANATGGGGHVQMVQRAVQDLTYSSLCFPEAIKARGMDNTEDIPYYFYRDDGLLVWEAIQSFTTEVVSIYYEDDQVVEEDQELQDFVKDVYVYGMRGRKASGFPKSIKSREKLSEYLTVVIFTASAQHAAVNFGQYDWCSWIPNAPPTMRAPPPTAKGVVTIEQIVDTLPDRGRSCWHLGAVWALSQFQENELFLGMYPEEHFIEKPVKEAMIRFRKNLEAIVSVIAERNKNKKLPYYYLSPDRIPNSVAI
Procedure: In 0.9 ml of Hunks' solution, were suspended 2×10^6 of abdominal cells of Wister rat (7 to 12 week-age) and incubated at 37° C. for 15 min after adding 10^-7 M of arachidonic acid and the compound of the present invention dissolved in ethanol, or only 10^-7 M of arachidonic acid and ethanol as a control. Further, 100 μl of 5 μg/μl of calcium inonophore A-23187 was added and the incubation was further continued at 37° C. for 15 min to produce leukotrienes. After cooling the reaction mixture with ice for 20 min to terminate the reaction, the reaction mixture was subjected to centrifugation at 4° C. for 10 min at 3000 rpm. The inhibition activity to lipoxygenase of the compound according to the present invention was measured by bioassay of leukotrienes contained in the resultant supernatants by using a Magunus' device while taking the contraction reaction of ileum extirpated from guinea pig as the indication. The inhibition rate of the compound according to the present invention was calculated based on the ratio of the suppression due to the compound with respect to the extent of the contraction reaction in the control group, and the intensity of inhibition based thereon is shown in the following Tables 4 and 5 (Compound numbers in Tables 4 and 5 correspond to the Compound numbers in Table 1).

[1] = tested on: Ear Edema Caused by Arachidonic Acid; experiment: Suppressing effect on ear edema caused by arachidonic acid; type: in vivo, ICR male mice; conditions: Mus musculus, 1 h, thickness after one hour, read-out: Suppression rate (ear edema); for inhibition in vivo at 0.1 mg: topical, local application, 0.1 mg/auricle, 30 min before inflammatory agent (2 mg arachidonic acid); for inhibition in vivo at 50 mg/kg: oral administration, one hour before inflammatory agent (2 mg arachidonic acid)
Procedure: The thickness of auricles of ICR male mice of 6 week-age was measured by using a micrometer. On both sides of one of the auricles of each mouse, was applied 2 mg of arachidonic acid dissolved in acetone as the inflammatory agent to cause inflammation thereon. The thickness of the auricle after one hour of the application was measured and the difference between the thickness obtained and the thickness before the application was taken as the value of ear edema. The compound according to the present invention dissolved in ethanol or only ethanol as a control were orally administrated or applied localy. In the case of oral administration, 50 mg/kg of the compound according to the present invention was administrated one hour before the application of the inflammatory agent, and 0.1 mg/auricle was applied 30 min before the application in the case of local application.
The suppression rate of ear edema of the compound according to the present invention was calculated based on the ratio of the suppression to the value of ear edema in the control group and the results are shown in Tables 6 and 7 (Compound numbers in Tables 6 and 7 correspond to the Compound numbers in Table 1).
Further, benoxaprofen and NDGA were used as the comparison.

[2] = design: species or system ICR male mice; conditions: mouse, in vivo, po, 2000 mg/kg
Procedure: The compounds according to the present invention (Compound No. 44 in Table 1) suspended in an aqueous 1% tragacanth solution was orally administrated by 2000 mg/kg to 6 week-age ICR male mice.

[3] = literature; cited from earlier work
[4] = 10^-5 M (final concentration), rat abdominal cells, calcium ionophore A-23187
[5] = rat abdominal cells, calcium ionophore A-23187

For `C#CCCCC#CCOc1ccccc1Cc1nc2ccccc2o1` [Compound 98], the inhibition at 10 µM (lipoxygenase; [4]) was 50 to 80% and the inhibition in vivo at 0.1 mg [1] was 50.2%.

With `C#CCCCOc1ccc(Cl)cc1Cc1nc2ccccc2o1` [Compound 112] the inhibition at 10 µM (lipoxygenase; [4]) was 50 to 80% and the inhibition at 1 µM (lipoxygenase; [5]) was 20 to 50%.

Work on `CC#CCOc1cccc(Cc2nc3ccccc3o2)c1` [Compound 73] yielded an inhibition at 10 µM (lipoxygenase; [4]) of 80 to 100%, an inhibition at 1 µM (lipoxygenase; [5]) of 20 to 50% and an inhibition in vivo at 50 mg/kg [1] of 85.1%.

Work on `CC#CCOc1ccccc1Cc1nc2ccccc2o1` [Compound 96] yielded an inhibition at 10 µM (lipoxygenase; [4]) of 80 to 100% and an inhibition in vivo at 50 mg/kg [1] of 71.8%.

`Clc1cc(Cc2nc3ccccc3o2)ccc1OCCCCOc1ccccc1` [Compound 44] gave an inhibition at 10 µM (lipoxygenase; [4]) of 80 to 100%, an inhibition at 1 µM (lipoxygenase; [5]) of 50 to 80% and an inhibition in vivo at 50 mg/kg [1] of 80.7%. For the same compound, the Anatomic inspection [2] was “no abnormality was observed” and the “Condition and body weight” value [2] was “no change was recognized at all”.

In the case of `CC(C(=O)O)c1ccc2oc(-c3ccc(Cl)cc3)nc2c1` (centres unmarked) [Benoxaprofen, benoxaprofen], the inhibition in vivo at 50 mg/kg [1] is given as 15.3%, the adverse effect [3] is given as “grave adverse effect” and the effect on psoriasis [3] is given as “effective to psoriasis”.

In the case of `C(#Cc1ccccc1)CCCOc1ccc(Cc2nc3ccccc3o2)cc1` [Compound 29], the inhibition at 10 µM (lipoxygenase; [4]) is reported as 80 to 100% and the inhibition at 1 µM (lipoxygenase; [5]) is reported as 20 to 50%.

In the case of `Fc1ccc(OCCCCOc2ccc(Cc3nc4ccccc4o3)cc2)cc1` [Compound 15], the inhibition at 10 µM (lipoxygenase; [4]) is reported as 50 to 80% and the inhibition at 1 µM (lipoxygenase; [5]) is reported as 20 to 50%.

`COCCCCOc1ccc(Cc2nc3ccccc3o2)cc1Cl` [Compound 51] showed an inhibition at 10 µM (lipoxygenase; [4]) of 80 to 100% and an inhibition at 1 µM (lipoxygenase; [5]) of 50 to 80%.

Compound `C#CCCCOc1c(Cl)cccc1Cc1nc(-c2ccccc2)co1` [Compound 125] has an inhibition in vivo at 0.1 mg [1] of 41.7%.

Compound `COCCCCOc1ccc(Cc2nc3ccccc3o2)cc1` [Compound 25] has an inhibition at 10 µM (lipoxygenase; [4]) of 50 to 80% and an inhibition at 1 µM (lipoxygenase; [5]) of 20 to 50%.

`CC#CCOc1cccc(Cc2nc(-c3ccccc3)co2)c1` [Compound 129] gave an inhibition at 10 µM (lipoxygenase; [4]) of 50 to 80%.

`CCCCOc1cccc(Cc2nc3ccccc3o2)c1` [Compound 71] showed an inhibition at 10 µM (lipoxygenase; [4]) of 80 to 100% and an inhibition in vivo at 50 mg/kg [1] of 77.9%.

With `C(#Cc1ccccc1)CCCOc1ccccc1Cc1nc2ccccc2o1` [Compound 89] the inhibition at 10 µM (lipoxygenase; [4]) was 50 to 80% and the inhibition at 1 µM (lipoxygenase; [5]) was 20 to 50%.

`Cc1ccccc1OCCCCOc1ccc(Cc2nc3ccccc3o2)cc1` [Compound 10] showed an inhibition at 10 µM (lipoxygenase; [4]) of 50 to 80% and an inhibition at 1 µM (lipoxygenase; [5]) of 20 to 50%.

`c1ccc(COCCCOc2ccc(Cc3nc4ccccc4o3)cc2)cc1` [Compound 19] showed an inhibition at 10 µM (lipoxygenase; [4]) of 80 to 100% and an inhibition at 1 µM (lipoxygenase; [5]) of 50 to 80%.

For `c1ccc(OCCCOc2ccc(Cc3nc4ccccc4o3)cc2)cc1` [Compound 2, 2-[4-(3-phenoxy)propoxybenzyl]benzoxazole], the inhibition at 10 µM (lipoxygenase; [4]) was 80 to 100% and the inhibition at 1 µM (lipoxygenase; [5]) was 20 to 50%.

For `Clc1ccc(OCCCCOc2ccc(Cc3nc4ccccc4o3)cc2Cl)cc1` [Compound 62], the inhibition at 10 µM (lipoxygenase; [4]) was 50 to 80%, the inhibition at 1 µM (lipoxygenase; [5]) was 20 to 50% and the inhibition in vivo at 0.1 mg [1] was 32.9%.

Compound `c1ccc(OCCCCCCOc2ccc(Cc3nc4ccccc4o3)cc2)cc1` [Compound 5] has an inhibition at 10 µM (lipoxygenase; [4]) of 80 to 100% and an inhibition at 1 µM (lipoxygenase; [5]) of 20 to 50%.

`Clc1cc(Cc2nc3ccccc3o2)ccc1OCCCC#Cc1ccccc1` [Compound 47] showed an inhibition at 10 µM (lipoxygenase; [4]) of 80 to 100%.

For `Clc1ccccc1OCCCCOc1ccc(Cc2nc3ccccc3o2)cc1` [Compound 7], the inhibition at 10 µM (lipoxygenase; [4]) was 50 to 80% and the inhibition at 1 µM (lipoxygenase; [5]) was 20 to 50%.

`CCCC#CCOc1ccc(Cc2nc3ccccc3o2)cc1` [Compound 37] gave an inhibition at 10 µM (lipoxygenase; [4]) of 80 to 100%, an inhibition at 1 µM (lipoxygenase; [5]) of 20 to 50% and an inhibition in vivo at 0.1 mg [1] of 42.1%.

In the case of `OCC#CCCCC#CCCCOc1ccc(Cc2nc3ccccc3o2)cc1Cl` [Compound 57], the inhibition at 10 µM (lipoxygenase; [4]) is reported as 80 to 100% and the inhibition in vivo at 0.1 mg [1] is reported as 49.8%.

In the case of `c1ccc(OCCCOc2ccc(Cc3nc4ccccc4s3)cc2)cc1` [Compound 1, 2-[4-(3-phenoxy)propoxybenzyl]benzothiazole], the inhibition at 10 µM (lipoxygenase; [4]) is reported as 80 to 100% and the inhibition at 1 µM (lipoxygenase; [5]) is reported as 20 to 50%.

Work on `CC(Cc1ccc(O)c(O)c1)C(C)Cc1ccc(O)c(O)c1` (centres unmarked) [NDGA, Nordihydroguaiaretic acid, reference compound] yielded an inhibition at 10 µM (lipoxygenase) of 0 to 20% and an inhibition in vivo at 0.1 mg [1] of 18.2%.

Work on `C(#CCOc1ccccc1Cc1nc2ccccc2o1)CCCC#Cc1ccccc1` [Compound 90] yielded an inhibition at 10 µM (lipoxygenase; [4]) of 80 to 100% and an inhibition at 1 µM (lipoxygenase; [5]) of 20 to 50%.

With `Clc1cc(OCCCCOc2ccccc2)ccc1Cc1nc2ccccc2o1` [Compound 6] the inhibition at 10 µM (lipoxygenase; [4]) was 80 to 100% and the inhibition in vivo at 0.1 mg [1] was 48.5%.

`CC#CCOc1cccc(Cl)c1Cc1nc2ccccc2o1` [Compound 100] showed an inhibition at 10 µM (lipoxygenase; [4]) of 80 to 100% and an inhibition at 1 µM (lipoxygenase; [5]) of 50 to 80%.

For `CC#CCOc1ccc(Cc2nc3ccccc3o2)c(Cl)c1` [Compound 34], the inhibition at 10 µM (lipoxygenase; [4]) was 50 to 80% and the inhibition in vivo at 0.1 mg [1] was 42.9%.
